Assay results published in ChEMBL document CHEMBL4330149, “Lignan Dimers from Forsythia viridissima Roots and Their Antiviral Effects” (J Nat Prod, 2019).

Legend:
Coxsackievirus B3 = test: Antiviral activity against Coxsackievirus B3 infected in African green monkey Vero cells assessed as reduction in virus-induced cytopathic effect after 2 days by SRB staining based microscopic method; assay type: functional, organism-based; conditions: Enterovirus B, 48 h
[1] = Cytotoxicity against African green monkey Vero cells assessed as growth inhibition after 2 days by SRB assay; assay type: cell-based; conditions: chlorocebus sabaeus
[2] = Selectivity index, ratio of CC50 for African green monkey Vero cells to IC50 for Coxsackievirus B3 infected in African green monkey Vero cells; assay type: toxicity; conditions: read-out: Ratio CC50/IC50
[3] = Cytotoxicity against human HeLa cells assessed as growth inhibition after 2 days by SRB assay; assay type: cell-based
rhinovirus A1B = test: Antiviral activity against Human rhinovirus 1B infected in human HeLa cells assessed as reduction in virus-induced cytopathic effect after 2 days by SRB staining based microscopic method; assay type: functional, organism-based; conditions: Rhinovirus A, 48 h
[4] = Selectivity index, ratio of CC50 for human HeLa cells to IC50 for Human rhinovirus 1B infected in human HeLa cells; assay type: toxicity, cell-based; conditions: read-out: Ratio CC50/IC50

Compound | IC50 (Coxsackievirus B3) [µM] | CC50 at 48 h [1] [µM] | selectivity ratio [2] | CC50 at 48 h [3] [µM] | IC50 (rhinovirus A1B) [µM] | selectivity ratio [4]
CCOC(=O)/C=C/[C@H](C[C@@H]1CCNC1=O)NC(=O)[C@@H](CC(=O)[C@@H](NC(=O)c1cc(C)on1)C(C)C)Cc1ccc(F)cc1 [RUPINTRIVIR] | 6.6 | > 50 | > 7.6 | > 50 | – | –
COc1cc(C[C@H]2COC(=O)[C@@H]2Cc2cc(OC)c(O)c(-c3cc(C[C@H]4C(=O)OC[C@@H]4Cc4ccc(OC)c(OC)c4)cc(OC)c3O)c2)ccc1O | – | – | – | > 50 | 47.5 | > 1.1
COc1cc(C[C@H]2C(=O)OC[C@@H]2Cc2cc(OC)c(O)c(-c3cc(C[C@H]4C(=O)OC[C@@H]4Cc4ccc(OC)c(OC)c4)cc(OC)c3O)c2)ccc1O | – | – | – | > 50 | 45.7 | > 1.1
COc1ccc(C[C@H]2COC(=O)[C@@H]2Cc2ccc(Oc3cc(C[C@H]4C(=O)OC[C@@H]4Cc4ccc(OC)c(OC)c4)cc(OC)c3O)c(OC)c2)cc1OC | – | – | – | > 50 | 13 | > 3.8
COc1cc([C@@H](OC)[C@@H]2CO[C@H](c3ccc(O)c(OC)c3)[C@@H]2CO)ccc1O (relative stereo) | 15.4 | > 50 | > 3.2 | – | – | –
COc1cc(C[C@H]2COC(=O)[C@@H]2Cc2ccc(O)c(OC)c2)ccc1O [MATAIRESINOL] | – | – | – | > 50 | 43.2 | > 1.2
